Data on seven compounds can be found in PMC12670405, “Second-Generation AURKA-Targeting PROTACs: Structural Optimization toward in Vivo Degradation in Neuroblastoma” (Journal of Medicinal Chemistry, 2025).

The test system of one data set is NGP. The data set can be described thus: IncuCyte live-cell imaging, antiproliferative effect. The data set is classed as cell-based. As to conditions: Homo sapiens, 72 h. The gist of the method:
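Cells seeded in 384-well plates (neuroblastoma 1200–5000, HEK293T 600 cells/well), adhered overnight, then compound-treated in duplicate or triplicate; confluency tracked by IncuCyte live-cell imaging. Normalized confluence averaged from 3 experiments; absolute GI50 interpolated from four-parameter variable-slope curves.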

A short description of the next data set: Plasma stability assay. The settings on record: for half-life at 1 μM: CD-1 mouse plasma, 37 °C, read-out: plasma t1/2. The data set is classed as in vitro ADME, CD-1 mouse. The gist of the method:
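Compounds incubated at 37 °C: CD-1 mouse plasma, 1 μM, 0–2 h; CD-1 MLM 0.1 mg/mL, 0.1 μM, 0–60 min; CD-1 hepatocytes 0.7 million cells/mL, 1 μM, 0–2 h. Parent remaining by HPLC-MS/MS relative to 0 h; t1/2 from initial log-linear slope assuming first-order kinetics; one run, duplicate samples.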

Read-outs that look alike come from different tables or passages of the source.

Regarding `O=C1CCC(Nc2ccc(N3CCN(C4CN(C(=O)[C@]5(Cc6cccc(Nc7nccs7)n6)CC[C@@H](Oc6cccc(Cl)c6F)CC5)C4)CC3)c(F)c2)C(=O)N1` (stereo partly shown) [PROTAC 18], the GI50 with NGP (read-out: GI50 72h, 72h) is 17 nM. For the same compound, the GI50 with NGP (read-out: pGI50 (converted)) is 17 nM. In the data set “Plasma stability assay”, the half-life at 1 μM is greater than 2 h and the “plasma t1/2” value was greater than 2 h.
As for `O=C1CCN(c2ccc(N3CCN(CC4CN(C(=O)[C@]5(Cc6cccc(Nc7nccs7)n6)CC[C@@H](Oc6cccc(Cl)c6F)CC5)C4)CC3)nc2)C(=O)N1` [PROTAC 23], in the data set with NGP (read-out: GI50 72h, 72h), the GI50 was found to be 24 nM. For the same compound, in the data set with NGP (read-out: pGI50 (converted)), the GI50 is 23.4 nM. In “Plasma stability assay”, the half-life at 1 μM is greater than 2 h and the “plasma t1/2” value is greater than 2 h.
On to `O=C1CCN(c2ccc(N3CCN(CC4CCN(C(=O)[C@]5(Cc6cccc(Nc7nccs7)n6)CC[C@@H](Oc6cccc(Cl)c6F)CC5)CC4)CC3)nc2)C(=O)N1` [PROTAC 24], for which the GI50 was 28 nM with NGP (read-out: GI50 72h, 72h) and 27.5 nM in the data set with NGP (read-out: pGI50 (converted)). Besides, the half-life at 1 μM in the data set “Plasma stability assay” is greater than 2 h. For the same compound, the “plasma t1/2” value in the data set “Plasma stability assay” was greater than 2 h.
With `Cc1cc(Nc2ccc(F)c(CC3(C(=O)N4CC(N5CCN(c6ccc(NC7CCC(=O)NC7=O)cc6F)CC5)C4)CCN(Cc4cccc(Cl)c4F)CC3)n2)n[nH]1` (stereo not shown) [PROTAC 29], the GI50 with NGP (read-out: GI50 72h, 72h) is 36 nM. In addition, the GI50 in the data set on NGP (read-out: pGI50 (converted)) is 36.3 nM. In “Plasma stability assay”, the half-life at 1 μM was greater than 2 h and the “plasma t1/2” value is greater than 2 h.
Take `O=C1CCC(N2C(=O)c3cccc(OCCOCCOCCOCCNC(=O)[C@]4(Cc5cccc(Nc6nccs6)n5)CC[C@@H](Oc5cccc(Cl)c5F)CC4)c3C2=O)C(=O)N1` (stereo partly shown) [SK2188, reference compound]: the GI50 with NGP (read-out: Cell GI50 72h, NGP (Figure 4B)) is 19 nM; with NGP (read-out: GI50 72h, 72h), 40 nM; in the data set with NGP (read-out: pGI50 (converted)) it was 39.8 nM. Also, the half-life at 1 μM in “Plasma stability assay” is 1.12 h.
Turning to `Cc1cc(Nc2ccc(F)c(CC3(C(=O)N4CCC(CN5CCN(c6ccc(N7CCC(=O)NC7=O)cn6)CC5)CC4)CCN(Cc4cccc(Cl)c4F)CC3)n2)n[nH]1` [SK4454], the GI50 is 35 nM in the data set on NGP (read-out: GI50 72h, 72h) and 34.7 nM with NGP (read-out: pGI50 (converted)). For the same compound, the half-life at 1 μM in “Plasma stability assay” was greater than 2 h. In addition, the “plasma t1/2” value in the data set “Plasma stability assay” was greater than 2 h.
On to `Cc1cc(Nc2ccc(F)c(CC3(C(=O)N4CCC(F)(CN5CCN(c6ccc(N7CCC(=O)NC7=O)cn6)CC5)CC4)CCN(Cc4cccc(Cl)c4F)CC3)n2)n[nH]1` [SK5527], for which, in the data set on NGP (read-out: GI50 72h, 72h), the GI50 worked out at 42 nM. In addition, the GI50 in the data set with NGP (read-out: pGI50 (converted)) was 41.7 nM. In addition, in the data set “Plasma stability assay”, the half-life at 1 μM is greater than 2 h and the “plasma t1/2” value was greater than 2 h.
